Tests used:
RSV A2_F = molecular target: T1, RSV A2_F (Human respiratory syncytial virus A, UniProt P03420); assay: RSV fusion assay (luciferase reporter, HEK 293T/17 cells transfected with A2_F); type: cell-based; settings: 24 hr
T1 construct: expressed in transfected cells; host or cells: HEK 293T/17
Method: HEK 293T/17 cells were cultured in T75 culture flasks in Dulbecco's medium (DMEM) containing 10% FBS and 1× Penicillin-Streptomycin (Pen/Strep) and warmed to 37° C. prior to use. The cells were passaged by first washing briefly with 3 ml phosphate buffered saline (PBS) followed by a 4 min incubation with […] at 37° C. 7 ml media was then added to the flask and the cells dispersed via pipetting (×3) against the bottom of the flask. Two further T75 flasks were each seeded with 2×10^6 cells in 15 ml fresh media.
Cells were seeded on the T75 plates at the same density as on the 6-well plates the area of a T75 flask and one 1.75 cm radius well from a 6-well plate were compared. 7.79×2 ml of 3×10^5 cells ml^−1 was used to seed a single T75 flask.
HEK cells were removed from a T75 flask as described above. The cells were counted and diluted to 3×10^5 cells/ml in fresh media. Two T75 flasks were each seeded with 15.58 ml diluted cells.
The plasmid DNA (for pFR-Luc and pcDNA3.1_Gal4/NFκB) to be transfected into the HEK cells was first prepared in serum free media (DMEM+Pen/Strep) containing the transfection reagent Fugene 6 (Promega). Transfections were set up as follows (Luc=pFR_Luc, Gal4=pcDNA3.1+_Gal4/NFκB, A2_F=pcDNA3.1+_A2_F)
Serum free media was placed in a 1.5 ml eppendorf tube then the fugene 6 was added into the media. The tube was vortexed for 1 s before being incubated at RT for 5 min. The plasmid DNA was then added to the tube, vortexed for 1 s, then incubated at RT for 15 min
The transfection reagents were then added to the appropriate T75 flask by tipping the flask on end and adding the reagents directly to the media already in the flask. The flask was then tipped on its back so the media could be mixed thoroughly whilst not disturbing the cells before placing the flask the right way up and incubating overnight at 37° C. and 5% CO2.
Compounds were diluted (in a polypropylene round-bottomed 96 well plate) 1:3 in a twelve point dilution curve to give top [final] of either 3.3 μM, 1 μM, 500 nM 200 nM or 100 nM. The Control compound was always run at a concentration of 100 nM.
The cells were then counted and diluted to 4×10^5 cells/ml in fresh media. 50 μl of transfection population 1 cells were added to all wells of the assay plates. 100 μl diluted compound (2 rows per compound), standard curve (one row) and controls (100 nM RV (100% inhibition, four wells), DMSO (0% inhibition, eight wells)) were added to the appropriate wells. 50 μl of the diluted (4×10^5 cells/ml) transfection population 2 cells when then added to all wells.
The plates were then incubated for 24 hr at 37° C. and 5% CO2
Buffers were prepared for the luciferase assay (20 mM tricine, 10 mM MgSO4, 1 mM EDTA, 10 mM DTT) and lysis (25 mM tris-phosphate, 8 mM MgCl2, 1 mM DTT, 1% Triton X-100, 15% glycerol) and stored at −20° C.
Luminescence was measured as described:
Media was discarded into Virkon and the plates washed with 100 ul PBS per well. 20 ul/well of lysis buffer was added to each well and incubated shaking for 5 min at RT. Luciferin was added to LAAB at a dilution of 1:50 to give a working luciferin buffer. 100 μl working luciferin buffer was added to each well and luminescence was measured immediately. […]

RSV A2 VR-1540 = assay: Plaque Reduction Assay 2 (HEp-2 cells, virospot count); type: cell-based; settings: human respiratory syncytial virus, 24 h; RSV A2, HEp-2 cells, 1 day
Excerpt: Plaque Reduction Assay 2:
This RSV plaque reduction assay is an infectivity assay which allows quantification of the number of infectious units in a distinct foci of RSV infection. This is indicated by zones of viral antigen detected by specific antibody staining within a monolayer of otherwise healthy tissue culture cells. As each plaque originates from a single infectious virus particle an accurate calculation of the anti-viral effect can be obtained by counting plaques in the presence and absence of an anti-viral compound. HEp-2 cells (ATCC, CCL23) were passaged in flasks and seeded in 96-well plates in DMEM containing antibiotics and supplemented with 10% FBS. During inoculation and subsequent incubation, cells were cultured in DMEM containing 3% FBS. 100 plaque forming unit (PFU)/well of RSV (RSV A2 VR-1540) was mixed with ten serial dilutions of compound. Subsequently, 100 μL of the virus/compound mixtures was added to confluent HEp-2 cell monolayers. The cells and virus/compound mixtures were incubated at 35° C. in a humidified 5% CO2 incubator for 1 day.
Cells were washed twice with PBS before adding 50% v/v EtOH/MeOH, and then stored at −20° C. On the day of the staining, fixative was first removed from the plates. Plates were washed 3× with PBS. A pre-titrated amount of the primary antibody was added in 60 μL PBS/2% milk powder, and plates incubated for 1 h at rt. The plates were washed 3× with PBS/0.05% Tween20 before addition of goat anti-mouse horse radish peroxidase in 60 μL PBS/2% milk powder, and incubated for 1 h at rt. Following three wash steps with PBS/0.05% Tween20, 60 μL ready-to-use TrueBlue was added and plates were incubated at rt for 10-15 min before adding MilliQ water. Plates were washed once with water, incubated for 30-60 min and after removal of water, air-dried in the dark.
Plates were scanned and analyzed using the Immunospot S6 UV analyzer, which is equipped with BioSpot analysis software for counting immunostained plaques (virospots). Plaque counts were used to calculate % infection relative to the mean of the spot count (SC) in the virus control wells for RSV. IC50/IC90 values were calculated as 50% or 90% reduction in signal, respectively, by interpolation of inhibition curves fitted with a 4-parameter nonlinear regression with a variable slope in GraphPad 5.0 (Prism).

[1] = Fusion activity IC50 μM, HEK 293T/17 cells
[2] = Fusion activity PIC50, HEK 293T/17 cells

T1 sequence (P03420 137-574): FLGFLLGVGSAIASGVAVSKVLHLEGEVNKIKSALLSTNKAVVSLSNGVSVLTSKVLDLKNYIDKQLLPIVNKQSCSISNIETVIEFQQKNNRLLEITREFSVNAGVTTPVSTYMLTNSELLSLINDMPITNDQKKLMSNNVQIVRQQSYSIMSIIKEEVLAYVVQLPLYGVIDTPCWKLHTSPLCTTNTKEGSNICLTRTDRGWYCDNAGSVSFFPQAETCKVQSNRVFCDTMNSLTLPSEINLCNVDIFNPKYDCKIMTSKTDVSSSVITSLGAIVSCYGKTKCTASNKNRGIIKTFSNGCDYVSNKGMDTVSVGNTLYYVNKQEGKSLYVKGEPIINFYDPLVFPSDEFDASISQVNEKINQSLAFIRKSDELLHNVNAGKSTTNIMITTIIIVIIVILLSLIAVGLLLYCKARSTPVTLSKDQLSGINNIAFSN
T1 sequence (P03420 26-109): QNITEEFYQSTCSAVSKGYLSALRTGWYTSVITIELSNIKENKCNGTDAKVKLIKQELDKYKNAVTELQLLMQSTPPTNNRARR

`NC1CCN(c2ncc(CN3C(=O)C4(CC4)c4ccc(F)cc43)c(NCCCCCO)n2)C1` (centres unmarked) [Compound 19, 1′-{[2-(3-Aminopyrrolidin-1-yl)-4-[(5-hydroxypentyl)amino]pyrimidin-5-yl]methyl}-6′-fluoro-1′,2′-dihydrospiro[cyclopropane-1,3′-indole]-2′-one] showed an IC50 (RSV A2_F; [1]) of 0.362 µM.

For `NCCNc1ncc(CN2C(=O)C3(CC3)c3ccc(F)cc32)c(NCCCCO)n1` [Compound 25, 1′-({2-[(2-Aminoethyl)amino]-4-[(4-hydroxybutyl)amino]pyrimidin-5-yl}methyl)-6′-fluoro-1′,2′-dihydrospiro[cyclopropane-1,3′-indole]-2′-one], the IC50 (RSV A2_F; [1]) was 0.212 µM and the IC50 (RSV A2 VR-1540) was 49 nM.

Work on `NC1CCN(c2ncc(CN3C(=O)C4(CC4)c4ccc(F)cc43)c(N3CCOCC3)n2)C1` (centres unmarked) [Compound 9, 1′-((2-(3-Aminopyrrolidin-1-yl)-4-morpholinopyrimidin-5-yl)methyl)-6′-fluorospiro[cyclopropane-1,3′-indolin]-2′-one] yielded an IC50 (RSV A2_F; [1]) of 3.66 µM.

`NC1CCN(c2ncc(CN3C(=O)C4(CC4)c4ccc(F)cc43)c(NCCN3CCOCC3)n2)C1` (centres unmarked) [Compound 3, 1′-((2-(3-Aminopyrrolidin-1-yl)-4-((2-morpholinoethyl)amino)pyrimidin-5-yl)methyl)-6′-fluorospiro[cyclopropane-1,3′-indolin]-2′-one] showed an IC50 (RSV A2_F; [1]) of 4.18 µM.

Compound `CS(=O)(=O)CCNc1nc(N2CCC(N)C2)ncc1CN1C(=O)C2(CC2)c2ccc(F)cc21` (centres unmarked) [Compound 18, 1′-{[2-(3-Aminopyrrolidin-1-yl)-4-[(2-methanesulfonylethyl)amino]pyrimidin-5-yl]methyl}-6′-fluoro-1′,2′-dihydrospiro[cyclopropane-1,3′-indole]-2′-one] has an IC50 (RSV A2_F; [1]) of 0.885 µM.

In the case of `NC1CCN(c2ncc(CN3C(=O)C4(CC4)c4ccc(F)cc43)c(NCCCCO)n2)CC1` [Compound 24, 1′-{[2-(4-Aminopiperidin-1-yl)-4-[(4-hydroxybutyl)amino]pyrimidin-5-yl]methyl}-6′-fluoro-1′,2′-dihydrospiro[cyclopropane-1,3′-indole]-2′-one], the IC50 (RSV A2_F; [1]) is reported as 0.695 µM.

`CS(=O)(=O)N1CCN(c2nc(N3CCC(N)C3)ncc2CN2C(=O)C3(CC3)c3ccc(F)cc32)CC1` (centres unmarked) [Compound 14, 1′-{[2-(3-Aminopyrrolidin-1-yl)-4-(4-methanesulfonylpiperazin-1-yl)pyrimidin-5-yl]methyl}-6′-fluoro-1′,2′ dihydrospiro[cyclopropane-1,3′-indole]-2′-one] gave an IC50 (RSV A2_F; [1]) of 1.2 µM.

Compound `CC(C)CNc1nc(N2CCC(CN)CC2)ncc1CN1C(=O)C2(CC2)c2ccc(F)cc21` [Compound 6] has an IC50 (RSV A2_F; [1]) of 5.22 µM.

`NC1CCN(c2nc(NCCCCO)ncc2CN2C(=O)C3(CC3)c3ccc(F)cc32)C1` (centres unmarked) [Compound 12, 1′-((4-(3-Aminopyrrolidin-1-yl)-2-((4-hydroxybutyl)amino)pyrimidin-5-yl)methyl)-6′-fluorospiro[cyclopropane-1,3′-indolin]-2′-one] was tested, and the IC50 (RSV A2_F; [1]) was 4.78 µM.

`NC1CCN(c2ncc(CN3C(=O)C4(CC4)c4ccc(F)cc43)c(NCC3CCOCC3)n2)C1` (centres unmarked) [Compound 23, 1′-{[2-(3-Aminopyrrolidin-1-yl)-4-{[(oxan-4-yl)methyl]amino}pyrimidin-5-yl]methyl}-6′-fluoro-1′,2′-dihydrospiro[cyclopropane-1,3′-indole]-2′-one] gave an IC50 (RSV A2_F; [1]) of 0.451 µM.

`CCCNc1nc(N2CCC(N)C2)ncc1CN1C(=O)C2(CC2)c2ccc(F)cc21` (centres unmarked) [Compound 28, 1′-{[2-(3-Aminopyrrolidin-1-yl)-4-(propylamino)pyrimidin-5-yl]methyl}-6′-fluoro-1′,2′-dihydrospiro[cyclopropane-1,3′-indole]-2′-one] gave an IC50 (RSV A2_F; [1]) of 1.23 µM and an IC50 (RSV A2 VR-1540) of 63 nM.

`NC1CCN(c2ncc(CN3C(=O)C4(CC4)c4ccc(F)cc43)c(SCCCCO)n2)C1` (centres unmarked) [Compound 16, 1′-{[2-(3-Aminopyrrolidin-1-yl)-4-[(4-hydroxybutyl)sulfanyl]pyrimidin-5-yl]methyl}-6′-fluoro-1′,2′-dihydrospiro[cyclopropane-1,3′-indole]-2′-one] showed an IC50 (RSV A2_F; [1]) of 2.79 µM and an IC50 (RSV A2_F; [2]) of 2.75 µM.

`CC(C)CCNc1nc(N2CCCC2)ncc1CN1C(=O)C2(CC2)c2ccc(F)cc21` [Compound 7, 6′-Fluoro-1′-((4-(isopentylamino)-2-(pyrrolidin-1-yl)pyrimidin-5-yl)methyl)spiro[cyclopropane-1,3′-indolin]-2′-one] was tested, and the IC50 (RSV A2_F; [1]) was 1.99 µM.

With `NC1CCN(c2ncc(CN3C(=O)C4(CC4)c4ccc(F)cc43)c(NCCCO)n2)C1` (centres unmarked) [Compound 27, 1′-{[2-(3-Aminopyrrolidin-1-yl)-4-[(3-hydroxypropyl)amino]pyrimidin-5-yl]methyl}-6′-fluoro-1′,2′-dihydrospiro[cyclopropane-1,3′-indole]-2′-one] the IC50 (RSV A2_F; [1]) was 1.09 µM and the IC50 (RSV A2 VR-1540) was 34 nM.

`NC1CCN(c2ncc(CN3C(=O)C4(CC4)c4ccc(F)cc43)c(OCCCF)n2)C1` (centres unmarked) [Compound 22, 1′-{[2-(3-Aminopyrrolidin-1-yl)-4-(3-fluoropropoxy)pyrimidin-5-yl]methyl}-6′-fluoro-1′,2′-dihydrospiro[cyclopropane-1,3′-indole]-2′-one] gave an IC50 (RSV A2_F; [1]) of 0.951 µM.

With `CC(C)CNc1nc(N2CCOCC2)ncc1CN1C(=O)C2(CC2)c2ccc(F)cc21` [Compound 8, 6′-Fluoro-1′-((4-(isobutylamino)-2-morpholinopyrimidin-5-yl)methyl)spiro[cyclopropane-1,3′-indolin]-2′-one] the IC50 (RSV A2_F; [1]) was 8.53 µM.

With `NC1CCN(c2ncc(CN3C(=O)C4(CC4)c4ccc(F)cc43)c(C#CCCCO)n2)C1` (centres unmarked) [Compound 21, 1′-{[2-(3-Aminopyrrolidin-1-yl)-4-(5-hydroxypent-1-yn-1-yl)pyrimidin-5-yl]methyl}-6′-fluoro-1′,2′-dihydrospiro[cyclopropane-1,3′-indole]-2′-one] the IC50 (RSV A2_F; [2]) was 25.1 µM.

Work on `COCCCNc1nc(N2CCC(N)C2)ncc1CN1C(=O)C2(CC2)c2ccc(F)cc21` (centres unmarked) [Compound 11, 1′-((2-(3-Aminopyrrolidin-1-yl)-4-((3-methoxypropyl)amino)pyrimidin-5-yl)methyl)-6′-fluorospiro[cyclopropane-1,3′-indolin]-2′-one] yielded an IC50 (RSV A2_F; [1]) of 0.424 µM.

Work on `CC(=O)N1CCN(c2nc(N3CCC(N)C3)ncc2CN2C(=O)C3(CC3)c3ccc(F)cc32)CC1` (centres unmarked) [Compound 17, 1′-{[4-(4-Acetylpiperazin-1-yl)-2-(3-aminopyrrolidin-1-yl)pyrimidin-5-yl]methyl}-6′-fluoro-1′,2′-dihydrospiro[cyclopropane-1,3′-indole]-2′-one] yielded an IC50 (RSV A2_F; [1]) of 5.46 µM.
